Source: BindingDB's records for doi:10.1124/mol.107.035832 (Nih, 2007)

Target: T1, Serine/threonine-protein kinase Chk2 [209-531,Q209M] (Homo sapiens, UniProt O96017, Q209M)
T1 construct: 209-531
Assay: In Vitro Protein Kinase Assay
Conditions: pH 7.5; 30 °C
Procedure: Recombinant Chk2 was incubated with either histone H1 (or GST-Cdc25C) in reaction buffer, and incubated at 30 deg C for indicated times. For the drug inhibition experiments, samples were coincubated with drug during the reactions. Reactions were stopped by adding sample buffer, and samples were boiled for 5 min. Reaction products were separated by 4-20% SDS-PAGE. Chk2 protein kinase activity, measured as 32P incorporation into Chk2, histone H1 (or GST-Cdc25C), was determined using a PhosphorImager (GE Healthcare, Chalfont St. Giles, Buckinghamshire, UK). Densitometry was performed using Image-Quant.

T1 sequence (O96017 209-531 Q209M): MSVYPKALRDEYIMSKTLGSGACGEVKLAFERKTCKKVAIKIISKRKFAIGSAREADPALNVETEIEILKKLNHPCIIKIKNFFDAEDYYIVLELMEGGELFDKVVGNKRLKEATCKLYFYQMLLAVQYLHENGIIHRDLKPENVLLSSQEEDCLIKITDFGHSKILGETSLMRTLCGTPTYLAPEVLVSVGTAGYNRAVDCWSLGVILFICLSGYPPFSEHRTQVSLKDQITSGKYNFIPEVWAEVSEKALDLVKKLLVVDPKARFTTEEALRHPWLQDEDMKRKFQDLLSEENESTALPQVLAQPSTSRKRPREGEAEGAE

Row | SMILES | IC50
1 | CC(=NN=C(N)N)c1ccc(NC(=O)Nc2ccc(C(C)=NN=C(N)N)cc2)cc1 [diacetyldiphenylurea bisguanylhydrazone] | 0.24 µM
2 | NC1=NC(=O)C(=C2CCNC(=O)c3[nH]ccc32)N1 [B722657K110] | 0.42 µM

Target: T1, Serine/threonine-protein kinase Chk2 [209-531,Q209M]
Assay: IMAP High-Throughput Screening
Conditions: pH 7.2; 23 °C
Procedure: The IMAP Screening Express Kit (Molecular Devices, Sunnyvale, CA) was used for the high-throughput screening experiments. Compounds from the Developmental Therapeutics Program (DTP) Open Repository were solubilized and diluted in DMSO and initially tested at one concentration in the assay. Active compounds were subsequently titrated at 20 2-fold dilutions. Reactions were performed using recombinant Chk2 with the indicated drug concentrations in reaction buffer in 384-well black microplate (Greiner Bio-One, Longwood, FL)] for 60 min at room temperature. IMAP binding reagent was added to each well, plates were incubated for 30 min at room temperature, and fluorescence polarization was measured using a Tecan Ultra plate reader. Each screening plate contained staurosporine as a positive control.

Row | IC50 | SMILES
3 | > 20 µM | CC(=NN=C(N)N)c1cccc(NC(=S)Nc2cccc(C(C)=NN=C(N)N)c2)c1 [NSC 177941]
4 | > 20 µM | CC(=NN=C(N)N)c1ccc(NC(=S)Nc2ccccc2)cc1 [NSC 177940]
5 | > 20 µM | CC(=NN=C(N)N)c1cccc(NC(=O)Nc2cccc(C(C)=NN=C(N)N)c2)c1 [NSC 177944]
6 | > 20 µM | CC(=NN=C(N)N)c1ccc(C(C)=NN=C(N)N)cc1 [NSC 67931]
7 | 0.2 µM | CC(=NN=C(N)N)c1ccc(NC(=O)Nc2ccc(C(C)=NN=C(N)N)cc2)cc1 [diacetyldiphenylurea bisguanylhydrazone]
8 | > 20 µM | CNC(=O)Nc1ccc(C(C)=NNC(N)=S)cc1 [NSC 377844]

Row | SMILES | IC50
9 | CC(C=NNC(=N)N)=NNC(=N)N [NSC 69432 (MGBG)] | > 20 µM
